In PubChem BioAssay (NCI) one finds GI50 and TGI data, which are given here for 12 molecules.

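Briefly, cells in 96-well plates were exposed to five compound concentrations for 48 h, and endpoints were estimated by linear interpolation. GI50 is the concentration that inhibits growth by half. TGI is the concentration that stops growth completely.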

One assay relates to HOP-62 NSCLC. Briefly: NCI-60 cell line screen, 48 h.
Turning to `Cc1cc(Cl)nc(N(CCNc2ccnc3cc(Cl)ccc23)Cc2ccco2)n1`, the GI50 is 2.04 µM and the TGI was found to be 4.79 µM.

Molecule `CCCCCCCCCCCC[C@@H](O)[C@H]1CC[C@H]([C@H](O)CC[C@H](O)[C@@H]2CC[C@@H](CCCCCCCC3=C[C@H](C)OC3=O)O2)O1` displayed a TGI of more than 50 µM.

Regarding `C=CCN(CC=C)C(=O)c1cc(C)nc2c1c(=O)n(-c1ccccc1)c(=O)n2CCCN1CCN(c2ccccc2OC)CC1`, the GI50 is more than 50 µM and the TGI is more than 50 µM.

For the molecule `CCN(CC)c1ccc2nc3ccc(=[N+](CC)CC)cc-3oc2c1`, the GI50 is 0.93 µM and the TGI was 32.2 µM.

As for `CN1CCN(c2c(F)cc(NC3=C(Cl)C(=O)c4ncccc4C3=O)cc2F)CC1`, the GI50 is 19.2 µM and the TGI stood at 42.9 µM.

In the case of `Cc1ccc(S(=O)(=O)NCCCCC(N)C(=O)O)cc1` (configuration not stated), the TGI was more than 100 µM.

As to `Nc1nccc(-c2c(-c3ccc(F)cc3)nn3cc(C(F)(F)F)ccc23)n1`, the GI50 was more than 21.9 µM and the TGI is more than 25 µM.

For `O=C(O)CN(CCN(CC(=O)O)CC(=O)O)CC(=O)O.[Mn+2]`, the GI50 was more than 100 µM and the TGI was more than 100 µM.

For `N#CC(C#N)=C/C=C(\Sc1ccc(Cl)cc1)c1ccc(F)cc1`, the GI50 is 2.54 µM and the TGI was determined as 16 µM.

On to `CCSCC1CC(O)(c2ccccc2)C(c2ccccc2)C(c2ccc(F)cc2)O1` (configuration not stated), for which the GI50 is 2.08 µM and the TGI was 4.52 µM.

`CCO/C=C1\SC(=S)N(c2ccc(OCC)cc2)C1=O` had a TGI of more than 100 µM.

For the molecule `Nc1nc(=S)c2ncn(C3OC(COP(=O)(O)O)C(O)C3O)c2[nH]1` (configuration not stated), the GI50 was 0.447 µM and the TGI was 12.7 µM.

The subject of a further assay is BT-549 breast. Briefly: NCI-60 cell line screen, 48 h.
In the case of `Cc1cc(Cl)nc(N(CCNc2ccnc3cc(Cl)ccc23)Cc2ccco2)n1`, the GI50 was 1.66 µM and the TGI was 3.3 µM.

`CCCCCCCCCCCC[C@@H](O)[C@H]1CC[C@H]([C@H](O)CC[C@H](O)[C@@H]2CC[C@@H](CCCCCCCC3=C[C@H](C)OC3=O)O2)O1`: the GI50 is 0.00376 µM.

Regarding `C=CCN(CC=C)C(=O)c1cc(C)nc2c1c(=O)n(-c1ccccc1)c(=O)n2CCCN1CCN(c2ccccc2OC)CC1`, the GI50 was more than 50 µM and the TGI was more than 50 µM.

In the case of `CCN(CC)c1ccc2nc3ccc(=[N+](CC)CC)cc-3oc2c1`, the GI50 was 2.32 µM and the TGI stood at 21 µM.

For `CN1CCN(c2c(F)cc(NC3=C(Cl)C(=O)c4ncccc4C3=O)cc2F)CC1`, the GI50 is 12.9 µM and the TGI came to 25.9 µM.

`Cc1ccc(S(=O)(=O)NCCCCC(N)C(=O)O)cc1` (configuration not stated) registered a TGI of more than 100 µM.

On to `Nc1nccc(-c2c(-c3ccc(F)cc3)nn3cc(C(F)(F)F)ccc23)n1`, for which the GI50 is more than 25 µM and the TGI was more than 25 µM.

For the molecule `O=C(O)CN(CCN(CC(=O)O)CC(=O)O)CC(=O)O.[Mn+2]`, the GI50 is more than 100 µM and the TGI is more than 100 µM.

In the case of `N#CC(C#N)=C/C=C(\Sc1ccc(Cl)cc1)c1ccc(F)cc1`, the GI50 is 1.16 µM and the TGI stood at 6.22 µM.

As for `CCSCC1CC(O)(c2ccccc2)C(c2ccccc2)C(c2ccc(F)cc2)O1` (configuration not stated), the GI50 is 2.31 µM and the TGI is 7.72 µM.

Regarding `CCO/C=C1\SC(=S)N(c2ccc(OCC)cc2)C1=O`, the TGI was more than 100 µM.

For the molecule `Nc1nc(=S)c2ncn(C3OC(COP(=O)(O)O)C(O)C3O)c2[nH]1` (configuration not stated), the GI50 is 2.38 µM and the TGI was more than 100 µM.

Another assay has as its system MCF7 breast. Briefly: NCI-60 cell line screen, 48 h.
With `Cc1cc(Cl)nc(N(CCNc2ccnc3cc(Cl)ccc23)Cc2ccco2)n1`, the GI50 was 1.69 µM and the TGI was found to be 3.36 µM.

Regarding `CCCCCCCCCCCC[C@@H](O)[C@H]1CC[C@H]([C@H](O)CC[C@H](O)[C@@H]2CC[C@@H](CCCCCCCC3=C[C@H](C)OC3=O)O2)O1`, the GI50 was 1.85 µM and the TGI was more than 50 µM.

As to `C=CCN(CC=C)C(=O)c1cc(C)nc2c1c(=O)n(-c1ccccc1)c(=O)n2CCCN1CCN(c2ccccc2OC)CC1`, the GI50 is more than 50 µM and the TGI is more than 50 µM.

Take `CCN(CC)c1ccc2nc3ccc(=[N+](CC)CC)cc-3oc2c1`: the GI50 is 0.029 µM and the TGI was found to be 0.276 µM.

Consider `CN1CCN(c2c(F)cc(NC3=C(Cl)C(=O)c4ncccc4C3=O)cc2F)CC1`, for which the GI50 is 2.04 µM and the TGI amounted to 5.35 µM.

The molecule `Cc1ccc(S(=O)(=O)NCCCCC(N)C(=O)O)cc1` (configuration not stated) returned a TGI of more than 100 µM.

As for `Nc1nccc(-c2c(-c3ccc(F)cc3)nn3cc(C(F)(F)F)ccc23)n1`, the GI50 is more than 25 µM and the TGI is more than 25 µM.

For the molecule `O=C(O)CN(CCN(CC(=O)O)CC(=O)O)CC(=O)O.[Mn+2]`, the GI50 was more than 100 µM and the TGI was more than 100 µM.

`N#CC(C#N)=C/C=C(\Sc1ccc(Cl)cc1)c1ccc(F)cc1`: the GI50 is 0.982 µM and the TGI is more than 100 µM.

On to `CCSCC1CC(O)(c2ccccc2)C(c2ccccc2)C(c2ccc(F)cc2)O1` (configuration not stated), for which the GI50 was 2.25 µM and the TGI worked out at 6.81 µM.

`CCO/C=C1\SC(=S)N(c2ccc(OCC)cc2)C1=O`: the TGI is more than 100 µM.

As for `Nc1nc(=S)c2ncn(C3OC(COP(=O)(O)O)C(O)C3O)c2[nH]1` (configuration not stated), the GI50 was 0.397 µM and the TGI is more than 100 µM.

In a further assay the test system is EKVX NSCLC. The assay can be described thus: NCI-60 cell line screen, 48 h.
`Cc1cc(Cl)nc(N(CCNc2ccnc3cc(Cl)ccc23)Cc2ccco2)n1`: the GI50 was 2.68 µM and the TGI is 12.1 µM.

In the case of `CCCCCCCCCCCC[C@@H](O)[C@H]1CC[C@H]([C@H](O)CC[C@H](O)[C@@H]2CC[C@@H](CCCCCCCC3=C[C@H](C)OC3=O)O2)O1`, the GI50 is 1.69 µM and the TGI was more than 50 µM.

In the case of `C=CCN(CC=C)C(=O)c1cc(C)nc2c1c(=O)n(-c1ccccc1)c(=O)n2CCCN1CCN(c2ccccc2OC)CC1`, the GI50 was more than 50 µM and the TGI was more than 50 µM.

Regarding `CCN(CC)c1ccc2nc3ccc(=[N+](CC)CC)cc-3oc2c1`, the GI50 is 0.292 µM and the TGI was more than 40.7 µM.

As for `CN1CCN(c2c(F)cc(NC3=C(Cl)C(=O)c4ncccc4C3=O)cc2F)CC1`, the GI50 is 14.9 µM and the TGI is 33.4 µM.

For the molecule `Cc1ccc(S(=O)(=O)NCCCCC(N)C(=O)O)cc1` (configuration not stated), the TGI is more than 100 µM.

For `Nc1nccc(-c2c(-c3ccc(F)cc3)nn3cc(C(F)(F)F)ccc23)n1`, the GI50 is more than 25 µM and the TGI is more than 25 µM.

`O=C(O)CN(CCN(CC(=O)O)CC(=O)O)CC(=O)O.[Mn+2]`: the GI50 was more than 100 µM and the TGI is more than 100 µM.

Regarding `N#CC(C#N)=C/C=C(\Sc1ccc(Cl)cc1)c1ccc(F)cc1`, the GI50 was 15.7 µM and the TGI amounted to 52.5 µM.

Consider `CCSCC1CC(O)(c2ccccc2)C(c2ccccc2)C(c2ccc(F)cc2)O1` (configuration not stated), for which the GI50 is 1.82 µM and the TGI came out at 6.13 µM.

In the case of `CCO/C=C1\SC(=S)N(c2ccc(OCC)cc2)C1=O`, the TGI is more than 100 µM.

On to `Nc1nc(=S)c2ncn(C3OC(COP(=O)(O)O)C(O)C3O)c2[nH]1` (configuration not stated), for which the GI50 was 2.34 µM and the TGI is more than 100 µM.

For a further assay, the system named is SNB-75 CNS. Briefly: NCI-60 cell line screen, 48 h.
For the molecule `Cc1cc(Cl)nc(N(CCNc2ccnc3cc(Cl)ccc23)Cc2ccco2)n1`, the GI50 was 1.57 µM and the TGI was determined as 4.18 µM.

The molecule `CCCCCCCCCCCC[C@@H](O)[C@H]1CC[C@H]([C@H](O)CC[C@H](O)[C@@H]2CC[C@@H](CCCCCCCC3=C[C@H](C)OC3=O)O2)O1` came in with a TGI of more than 50 µM.

`C=CCN(CC=C)C(=O)c1cc(C)nc2c1c(=O)n(-c1ccccc1)c(=O)n2CCCN1CCN(c2ccccc2OC)CC1`: the GI50 was 31.4 µM and the TGI is more than 50 µM.

`CCN(CC)c1ccc2nc3ccc(=[N+](CC)CC)cc-3oc2c1`: the GI50 is 1.31 µM and the TGI was 6.85 µM.

As to `CN1CCN(c2c(F)cc(NC3=C(Cl)C(=O)c4ncccc4C3=O)cc2F)CC1`, the GI50 is 10.9 µM and the TGI was determined as 23.9 µM.

`Cc1ccc(S(=O)(=O)NCCCCC(N)C(=O)O)cc1` (configuration not stated) came in with a TGI of more than 100 µM.

With `Nc1nccc(-c2c(-c3ccc(F)cc3)nn3cc(C(F)(F)F)ccc23)n1`, the GI50 was more than 19.7 µM and the TGI was more than 25 µM.

For `O=C(O)CN(CCN(CC(=O)O)CC(=O)O)CC(=O)O.[Mn+2]`, the GI50 was more than 100 µM and the TGI was more than 100 µM.

`N#CC(C#N)=C/C=C(\Sc1ccc(Cl)cc1)c1ccc(F)cc1`: the GI50 is 16.6 µM and the TGI stood at 31.7 µM.

Take `CCSCC1CC(O)(c2ccccc2)C(c2ccccc2)C(c2ccc(F)cc2)O1` (configuration not stated): the GI50 is 1.52 µM and the TGI stood at 3.67 µM.

The molecule `CCO/C=C1\SC(=S)N(c2ccc(OCC)cc2)C1=O` gave a TGI of more than 100 µM.

As for `Nc1nc(=S)c2ncn(C3OC(COP(=O)(O)O)C(O)C3O)c2[nH]1` (configuration not stated), the GI50 was 0.96 µM and the TGI was more than 100 µM.
